Consider 11 molecules from US7507859B2, “Functional synthetic molecules and macromolecules for gene delivery” (Fifth Base LLC, priority 2003, dated 2009).

Data set [1] deals with DNA. The data set can be described thus: Ethidium bromide-DNA fluorescence quenching exclusion assay. Type of data set: binding. As to conditions: 2 mM HEPES, 150 mM NaCl, 10 μm EDTA, pH 7.4; 60 minutes incubation; triplicate. How it is done:
Exclusion assay (adapted from; A. J. Geall, I. S. Blagbrough, Journal of Pharmaceutical and Biomedical Analysis 22 (2000) 849-859)
(§1) Five μg (5 μl of 1 mg/mL solution) of DNA and varying amount of amphiphiles (dependent on the Amphiphile/DNA ratio required) were diluted to 1000 μL with buffer (2 mM HEPES, 150 mM NaCl, 10 μm EDTA, pH 7.4). The solutions were mixed on a bench top vortex and incubated for 60 minutes at ambient temperature. Each solution was then diluted to 3 mL with buffer (2 mM HEPES, 150 mM NaCl, 10 μm EDTA, pH 7.4). Immediately prior to the analysis, 3 μL of Eth Br solution (0.6 mg/ml, 1.3 mM, effectively present in excess) was added, the sample was mixed on a bench top vortex, and the fluorescence measured. The fluorescence was expressed as the percentage of the maximum fluorescence signal when EthBr was bound to the DNA in the absence of amphiphile. Assays were run in triplicate. […] Compound 30a bound DNA and displaced EthBr.

Data set [2] can be described thus: Gel formation in DMSO. As to conditions: sonication (30 sec) or heating to 60 C for 5 minutes and cooling to room temperature. Type of data set: physicochemical. As to the method: The gels can be produced by either 1) sonication (30 sec) or by heating the suspensions to 60 C for 5 minutes and cooling to room temperature.
Data set [3] deals with chinese hamster ovary (CHO) cells. The data set can be described thus: B-galactosidase transfection assay. Format: cell-based. As to conditions: varying concentrations of lipid and DNA, triplicate, 96 well plates, chemiluminescent reporter. How it is done:
Transfection assays were performed using the well established B-galactosidase transfection assay. In these experiments the B-galactosidase gene is transfected into cells. Next, the expressed enzyme then cleaves a chemiluminescent reporter that is detected. The assays are conducted with chinese hamster ovary (CHO) cells following a standard lipid transfection procedure. The procedure is performed on varying concentrations of lipid and DNA in triplicate in 96 well plates.

In data set [4] the test system is DNA. Briefly: Exclusion assay after addition of an esterase (DNA release). Type of data set: biochemical. The note with it: esterase added to the amphiphile-DNA solution; EthBr intercalates again. How it is done:
as §1

Turning to “Trimethylamino-[G0]-PGLSA dendrimer iodide [Compound 44]”, the “DNA binding and displacement of EtBr” value in data set [1] is “bound DNA and displaced EtBr”. For the molecule `CCCCCCCCCCCCCCCC(=O)O[C@@H]1[C@H](OC(=O)CCCCCCCCCCCCCCC)[C@@H](CO)O[C@H]1n1ccc(=O)[nH]c1=O` [2′,3′dipalmitoyl uridine, 2′,3′palmitoyl uridine], in data set [2], the “Gel formation in DMSO” value is “form gels in DMSO”. Turning to `C[N+](C)(C)CC(COC(=O)CCCCCCCCCCC(=O)O)OC(=O)CCCCCCCCCCC(=O)O.[I-]` (stereo not shown) [Compound 35, [2,3-Bis-(11-carboxy-undecanoyloxy)-propyl]-trimethyl-ammonium; iodide], the “DNA binding and displacement of EtBr” value in data set [1] was “did not bind DNA and displace EthBr”. Besides, the “Transfection of the B-galactosidase gene” value in data set [3] is given as “minimal transfection activity”.

With `CC(=O)OCC(C[N+](C)(C)C)OC(C)=O.[I-]` (stereo not shown) [Compound 36, (2,3-Diacetoxy-propyl)-trimethyl-ammonium; iodide], the “DNA binding and displacement of EtBr” value in data set [1] was “did not bind DNA and displace EthBr”. In addition, the “Transfection of the B-galactosidase gene” value in data set [3] is reported as “minimal transfection activity”. On to `CCCCCCCCCCCCCC(=O)OCC(COC(=O)CCCCCCCCCCCCC)OC(=O)CCC(=O)OCC(COC(=O)CCC(=O)OC(COC(=O)CCCCCCCCCCCCC)COC(=O)CCCCCCCCCCCCC)OC(=O)CCC(=O)OC(COC(=O)CCC(=O)OCC[N+](C)(C)C)COC(=O)CCC(=O)OCC[N+](C)(C)C` [Compound 85], for which the “DNA binding and displacement of EtBr” value in data set [1] was “bound DNA and displaced EtBr”.

Turning to `CC(C)(C)OC(=O)CCCCCCCCCCC(=O)OCC(C[N+](C)(C)C)OC(=O)CCCCCCCCCCC(=O)OC(C)(C)C.[I-]` (stereo not shown) [Compound 34, [2,3-Bis-(11-tert-butoxycarbonyl-undecanoyloxy)-propyl]-trimethyl-ammonium; iodide], the “DNA binding and displacement of EtBr” value in data set [1] is “bound DNA and displaced EtBr”. Moreover, the “DNA release from the amphiphile after esterase cleavage of the ester linkages” value in data set [4] was “releasing the DNA from the amphiphile”. On to `C[N+](C)(C)CC(COC(=O)CCCCCCCCCCCOCc1ccccc1)OC(=O)CCCCCCCCCCCOCc1ccccc1.[I-]` (stereo not shown) [Compound 40, [2,3-Bis-(12-benzyloxy-dodecanoyloxy)-propyl]-trimethyl-ammonium; iodide], for which the “Transfection of the B-galactosidase gene” value in data set [3] was “transfected the B-galactosidase gene”. `C[N+](C)(C)CC(COC(=O)NCCCCCCCCCCCC(=O)OCC1CC(=O)Oc2cc(O)c(Br)cc21)OC(=O)NCCCCCCCCCCCC(=O)OCC1CC(=O)Oc2cc(O)c(Br)cc21.[I-]` (stereo not shown) [Compound 26, {2,3-Bis-[11-(6-bromo-7-hydroxy-2-oxo-chroman-4-ylmethoxycarbonyl)-undecylcarbamoyloxy]-propyl}-trimethyl-ammonium iodide]: in data set [1], the “DNA binding and displacement of EtBr” value is “bound DNA and displaced EtBr”. As to `C[N+](C)(C)CC(COC(=O)CCCCCCCCCCC(=O)OCc1ccccc1[N+](=O)[O-])OC(=O)CCCCCCCCCCC(=O)OCc1ccccc1[N+](=O)[O-].[I-]` (stereo not shown) [Compound 30b, {2,3-Bis-[11-(2-nitro-benzyloxycarbonyl)-undecanoyloxy]-propyl}-trimethyl-ammonium; iodide], the “DNA binding and displacement of EtBr” value in data set [1] was “bound DNA and displaced EtBr”. For “Trimethylamino-[G1]-PGLSA dendrimer iodide [Compound 47]”, in data set [1], the “DNA binding and displacement of EtBr” value was “bound DNA and displaced EtBr”. As for `C[N+](C)(C)CC(COC(=O)CCCCCCCCCCC(=O)OCc1ccccc1)OC(=O)CCCCCCCCCCC(=O)OCc1ccccc1.[I-]` (stereo not shown) [Compound 30a, [2,3-Bis-(11-benzyloxycarbonyl-undecanoyloxy)-propyl]-trimethyl-ammonium; iodide], the “DNA binding and displacement of EtBr” value in data set [1] is “bound DNA and displaced EtBr”. In addition, the “DNA release from the amphiphile after esterase cleavage of the ester linkages” value in data set [4] is reported as “releasing the DNA from the amphiphile”. The “Transfection of the B-galactosidase gene” value in data set [3] is “transfected the B-galactosidase gene”.
